# Source: patent publication US20060199864A1, “Selection of pH-dependent compounds for in vivo therapy” (priority 2004, published 2006)
# “Also recorded” adds a separate entry of the source. Like-named read-outs stand apart in the source and are kept apart here.
# Key:
# [1] = Spinal Nerve Ligation (SNL) model, mechanical allodynia (von Frey); assay type: in vivo, Sprague-Dawley rats; details: for Injured paw - von Frey threshold: mean ± SEM
# Description: Animals: Male Sprague-Dawley rats (Hsd:Sprague-Dawley®™SD®™, Harlan, Indianapolis, Ind., U.S.A.) weighing 100±10 g on surgery day and 250±10 g on testing day were housed three per cage. Animals had free access to food and water and were maintained on a 12:12 h light/dark schedule. The animal colony was maintained at 21° C. and 60% humidity. All experiments were conducted in accordance with the International Association for the Study of Pain guidelines and were approved by the University of Minnesota Animal Care and Use Committee.
# Drugs and dosing solutions: The drugs were dissolved in 1% v/v DMSO and 66% v/v PEG 400 in distilled water. Compounds were administered by i.p. route.
# Induction of chronic neuropathic pain: The Spinal Nerve Ligation (SNL) model (Kim and Chung 1992 Pain 50:355-63.) was used to induce chronic neuropathic pain. The animals were anesthetized with isoflurane, the left […] transverse process was removed, and the L5 and L6 spinal nerves were tightly ligated with 6-0 silk suture. The wound was then closed with internal sutures and external staples. Wound clips were removed 10 days following surgery.
# Mechanical allodynia testing: Baseline and post-treatment values for non-noxious mechanical sensitivity were evaluated using 8 Semmes-Weinstein filaments (Stoelting, Wood Dale, Ill., USA) with varying stiffness (0.4, 0.7, 1.2, 2.0, 3.6, 5.5, 8.5, and 15 g) according to the up-down method (Chaplan, Bach et al. 1994 J Neurosci Methods 53: 55-63). Animals were placed on a perforated metallic platform and allowed to acclimate to their surroundings for a minimum of 30 minutes before testing. The mean and standard error of the mean (SEM) were determined for each animal in each treatment group. Since this stimulus is normally not considered painful, significant injury-induced increases in responsiveness in this test are interpreted as a measure of mechanical allodynia.
# (§1) Experimental design: von Frey baseline measurements were made 30 minutes and 24 hours prior to drug administration respectively. Additional von Frey measurements were made at 30, 60, 120 and 240 min. The timeline for testing is summarized below. The experimental groups were: ·vehicle (1% DMSO+66% PEG 400 in distilled water, i.p., 4 ml/kg, n=10)·30 mg/kg Compound 93-31 test (i.p., 4 ml/kg, n=10)·100 mg/kg Compound 93-31 test (i.p., 4 ml/kg, n=10)·30 mg/kg Compound 93-97 test (i.p., 4 ml/kg, n=10)·100 mg/kg Compound 93-97 test (i.p., 4 ml/kg, n=10)·100 mg/kg Gabapentin (i.p., 4 ml/kg, n=12) (Total rats: 62). [drawing 42]
# Data analysis: Statistical analyses were conducted using Prism™ 4.01 (GraphPad, San Diego, Calif., USA). Mechanical allodynia of the injured paw was determined by comparing values observed in the contralateral and ipsilateral paws within the vehicle group. Stability of vehicle group injured paw values over time was tested using the Friedman two-way analysis of variance by rank. Drug effect was analyzed at each time point by carrying out a Kruskal-Wallis one-way analysis of variance by rank followed by a Dunn's post hoc test.
# Testing for mechanical allodynia (von Frey) was initiated 14 days after SNL surgery. Tests were performed on both injured (ipsilateral) and normal (contralateral) paws at baseline (30 minutes before drug administration) and 30, 60, 120 and 240 minutes after a single drug administration.
# [2] = Side effects observed in the SNL study; assay type: in vivo, Sprague-Dawley rats
# Description: as §1
# The side effects observed were writhing and stretching (8 observations). These side effects were most commonly seen for the first few minutes (˜5 minutes) following i.p. drug administration. […] Some side effects were observed while measuring the endpoints. The most common was stretching/writhing which may be a sign of some visceral pain or hypersensitivity. […] It seems likely to be associated with i.p. administration of the vehicle in a subset of animals. This seemed relatively rare, short lived (<5 min), and the magnitude was not large enough to interfere with measurement of the endpoint.
# [3] = Locomotor activity of rats (light beam breaks); details: for effects on locomotor activity: monitored 2 hours after injection; for effects on locomotor activity (positive control): varying doses IP
# Description: The Locomotor Activity Index is the total number of beam breaks during the trial divided by 1000.
# Locomotor activity was monitored after injection for 2 hours.
# NR1/NR2A [4] = target: T1, NR1/NR2A (Rattus norvegicus, UniProt P35439+Q00959); details: FIG. 4
# Description: Stage V and VI oocytes were surgically removed from the ovaries of large, well-fed and healthy Xenopus laevis anesthetized with 3-amino-benzoic acid ethyl ester (1 gm/l). Clusters of oocytes were incubated with 292 U/ml Worthington (Freehold, N.J.) type IV collagenase or 1.3 mg/ml collagenase (Life Technologies, Gaithersburg, Md.; 17018-029) for 2 hr in Ca2+-free solution comprised of (in mM) 115 NaCl, 2.5 KCl, and 10 HEPES, pH 7.5, with slow agitation to remove the follicular cell layer. Oocytes were then washed extensively in the same solution supplemented with 1.8 mM CaCl2 and maintained in Barth's solution comprised of (in mM): 88 NaCl, 1 KCl, 24 NaHCO3, 10 HEPES, 0.82 MgSO4, 0.33 Ca(NO3)2, and 0.91 CaCl2 and supplemented with 100 ug/ml gentamycin, 40 ug/ml streptomycin, and 50 ug/ml penicillin. Oocytes were manually defolliculated and injected within 24 hr of isolation with 5 ng of NR1 subunit and 10 ng of NR2 subunit in a 50 nl volume, and incubated in Barth's solution at 18° C. for 3-7 d. Glass injection pipettes had tip sizes ranging from 10-20 microns, and were backfilled with mineral oil.
# These stock solutions were subsequently diluted to the appropriate concentration range in a working solution comprised of 90 mM NaCl, 3 mM KCl, 5 mM HEPES, 0.5 mM BaCl2, 10 uM EDTA, 100 uM glutamate, 50 uM glycine (pH either 6.9 or 7.6 adjusted with NAOH or HCl as appropriate). […]
# [5] = rats; Dogan et al.; cited from earlier work
# [6] = cats; highest dose tested; Gotti et al.; cited from earlier work
# [7] = tested on: primary cultures of rat cerebral cortex; details: pH 6.5 vs pH 7.5; Mott et al. 1998; cited from earlier work
# [8] = cats and rats; highest dose tested; Gotti et al.; cited from earlier work
# NR1/NR2B = target: T2, NR1/NR2B (Rattus norvegicus, UniProt P35439+Q00960); experiment: NMDA receptor mediated currents, NR1/NR2B; assay type: cell-based; details: 3 uM; NR1/NR2B subunits
# T2 construct: expressed in transfected cells
# NR1/NR2D = target: T3, NR1/NR2D (Rattus norvegicus, UniProt P35439+Q62645); experiment: NMDA receptor mediated currents, NR1/NR2D; assay type: cell-based; details: 3 uM
# T3 construct: expressed in transfected cells
# AMPA receptors = experiment: Two electrode voltage clamp, Xenopus oocytes injected with AMPA receptor subunits; assay type: cell-based; details: 3 uM coadministered with glutamate
# Description: (§2) Glutamate or domoate induced current recordings were performed using two electrode voltage clamp, and 3 uM of Compound 93-4 coadministered with agonist (glutamate for AMPA receptors, domoate for kainate receptors).
# NR1/NR2A [9] = target: T1, NR1/NR2A; experiment: NMDA receptor mediated currents, NR1/NR2A; assay type: cell-based; parameters: expressed in transfected cells; details: 3 uM
# kainate receptors = experiment: Two electrode voltage clamp, Xenopus oocytes injected with kainate receptor subunits; assay type: cell-based; details: 3 uM coadministered with domoate
# Description: as §2
# T1 sequence (Q00959 23-1464, other chains not shown): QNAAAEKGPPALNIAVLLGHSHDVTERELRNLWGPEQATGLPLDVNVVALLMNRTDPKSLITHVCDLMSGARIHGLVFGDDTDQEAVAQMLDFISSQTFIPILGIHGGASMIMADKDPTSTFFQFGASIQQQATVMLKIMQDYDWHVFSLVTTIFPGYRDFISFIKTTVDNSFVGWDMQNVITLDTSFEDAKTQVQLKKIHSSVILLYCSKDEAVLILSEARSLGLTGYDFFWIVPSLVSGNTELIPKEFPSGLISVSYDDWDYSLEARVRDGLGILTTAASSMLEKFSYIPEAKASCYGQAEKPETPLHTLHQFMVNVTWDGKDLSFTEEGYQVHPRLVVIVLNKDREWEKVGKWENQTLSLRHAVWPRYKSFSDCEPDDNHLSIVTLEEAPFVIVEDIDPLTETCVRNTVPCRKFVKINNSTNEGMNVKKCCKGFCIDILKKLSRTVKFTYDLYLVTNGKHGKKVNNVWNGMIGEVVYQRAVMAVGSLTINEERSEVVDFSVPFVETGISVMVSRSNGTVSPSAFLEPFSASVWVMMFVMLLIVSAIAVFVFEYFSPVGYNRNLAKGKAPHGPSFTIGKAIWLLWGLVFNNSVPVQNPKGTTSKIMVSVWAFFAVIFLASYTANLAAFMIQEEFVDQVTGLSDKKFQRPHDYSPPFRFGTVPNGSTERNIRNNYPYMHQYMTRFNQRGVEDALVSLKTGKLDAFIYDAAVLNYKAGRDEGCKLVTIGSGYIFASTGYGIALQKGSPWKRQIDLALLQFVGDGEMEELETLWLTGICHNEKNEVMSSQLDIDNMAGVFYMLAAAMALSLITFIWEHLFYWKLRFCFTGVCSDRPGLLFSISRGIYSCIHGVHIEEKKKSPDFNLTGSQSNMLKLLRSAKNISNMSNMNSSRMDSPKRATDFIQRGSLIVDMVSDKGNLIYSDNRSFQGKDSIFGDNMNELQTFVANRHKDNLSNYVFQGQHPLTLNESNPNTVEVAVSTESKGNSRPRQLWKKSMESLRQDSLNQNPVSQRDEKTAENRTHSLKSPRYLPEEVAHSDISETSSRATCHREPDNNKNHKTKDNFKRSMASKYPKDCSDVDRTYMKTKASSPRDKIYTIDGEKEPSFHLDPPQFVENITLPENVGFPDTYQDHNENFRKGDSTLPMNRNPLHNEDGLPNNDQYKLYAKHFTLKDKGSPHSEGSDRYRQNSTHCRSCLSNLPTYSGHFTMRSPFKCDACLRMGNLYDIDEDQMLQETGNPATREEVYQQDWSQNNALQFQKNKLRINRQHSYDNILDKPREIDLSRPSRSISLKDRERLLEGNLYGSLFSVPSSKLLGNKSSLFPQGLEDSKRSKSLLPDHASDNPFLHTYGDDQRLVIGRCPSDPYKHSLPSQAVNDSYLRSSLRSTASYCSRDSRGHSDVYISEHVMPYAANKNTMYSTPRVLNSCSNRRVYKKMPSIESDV
# T3 sequence (Q62645 28-1323, other chains not shown): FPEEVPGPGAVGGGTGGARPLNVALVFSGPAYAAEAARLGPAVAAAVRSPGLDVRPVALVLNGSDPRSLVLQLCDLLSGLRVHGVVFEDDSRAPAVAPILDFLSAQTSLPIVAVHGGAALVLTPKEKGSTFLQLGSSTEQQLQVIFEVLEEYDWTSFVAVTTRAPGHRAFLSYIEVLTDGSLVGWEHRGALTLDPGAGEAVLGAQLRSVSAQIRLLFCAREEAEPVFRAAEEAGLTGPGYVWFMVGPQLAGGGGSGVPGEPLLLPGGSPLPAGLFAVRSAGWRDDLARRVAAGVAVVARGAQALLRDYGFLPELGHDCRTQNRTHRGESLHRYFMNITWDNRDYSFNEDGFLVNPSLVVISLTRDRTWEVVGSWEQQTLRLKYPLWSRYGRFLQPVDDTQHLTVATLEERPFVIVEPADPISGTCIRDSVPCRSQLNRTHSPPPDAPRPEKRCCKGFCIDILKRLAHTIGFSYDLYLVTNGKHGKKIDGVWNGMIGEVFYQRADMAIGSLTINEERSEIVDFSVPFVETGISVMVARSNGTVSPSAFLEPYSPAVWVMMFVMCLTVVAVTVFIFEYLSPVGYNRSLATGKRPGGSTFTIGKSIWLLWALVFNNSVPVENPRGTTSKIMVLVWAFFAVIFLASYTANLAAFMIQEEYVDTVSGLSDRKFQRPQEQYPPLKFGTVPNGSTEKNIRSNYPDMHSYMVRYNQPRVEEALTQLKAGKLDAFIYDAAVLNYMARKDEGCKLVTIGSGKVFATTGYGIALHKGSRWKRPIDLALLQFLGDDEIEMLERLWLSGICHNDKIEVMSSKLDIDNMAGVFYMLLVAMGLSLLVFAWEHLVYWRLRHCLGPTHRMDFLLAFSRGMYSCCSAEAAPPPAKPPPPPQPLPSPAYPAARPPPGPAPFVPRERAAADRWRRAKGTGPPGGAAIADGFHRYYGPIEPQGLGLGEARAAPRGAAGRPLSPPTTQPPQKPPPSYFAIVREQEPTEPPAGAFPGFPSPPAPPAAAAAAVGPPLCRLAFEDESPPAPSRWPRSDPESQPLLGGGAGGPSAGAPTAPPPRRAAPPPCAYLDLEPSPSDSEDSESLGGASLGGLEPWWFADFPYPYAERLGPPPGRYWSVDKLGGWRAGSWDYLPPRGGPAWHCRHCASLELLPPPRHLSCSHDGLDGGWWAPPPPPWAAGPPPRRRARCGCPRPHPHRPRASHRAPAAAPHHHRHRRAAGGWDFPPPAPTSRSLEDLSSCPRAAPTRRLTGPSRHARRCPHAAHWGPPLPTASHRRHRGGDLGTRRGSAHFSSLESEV
# T2 sequence (Q00960 27-1482, other chains not shown): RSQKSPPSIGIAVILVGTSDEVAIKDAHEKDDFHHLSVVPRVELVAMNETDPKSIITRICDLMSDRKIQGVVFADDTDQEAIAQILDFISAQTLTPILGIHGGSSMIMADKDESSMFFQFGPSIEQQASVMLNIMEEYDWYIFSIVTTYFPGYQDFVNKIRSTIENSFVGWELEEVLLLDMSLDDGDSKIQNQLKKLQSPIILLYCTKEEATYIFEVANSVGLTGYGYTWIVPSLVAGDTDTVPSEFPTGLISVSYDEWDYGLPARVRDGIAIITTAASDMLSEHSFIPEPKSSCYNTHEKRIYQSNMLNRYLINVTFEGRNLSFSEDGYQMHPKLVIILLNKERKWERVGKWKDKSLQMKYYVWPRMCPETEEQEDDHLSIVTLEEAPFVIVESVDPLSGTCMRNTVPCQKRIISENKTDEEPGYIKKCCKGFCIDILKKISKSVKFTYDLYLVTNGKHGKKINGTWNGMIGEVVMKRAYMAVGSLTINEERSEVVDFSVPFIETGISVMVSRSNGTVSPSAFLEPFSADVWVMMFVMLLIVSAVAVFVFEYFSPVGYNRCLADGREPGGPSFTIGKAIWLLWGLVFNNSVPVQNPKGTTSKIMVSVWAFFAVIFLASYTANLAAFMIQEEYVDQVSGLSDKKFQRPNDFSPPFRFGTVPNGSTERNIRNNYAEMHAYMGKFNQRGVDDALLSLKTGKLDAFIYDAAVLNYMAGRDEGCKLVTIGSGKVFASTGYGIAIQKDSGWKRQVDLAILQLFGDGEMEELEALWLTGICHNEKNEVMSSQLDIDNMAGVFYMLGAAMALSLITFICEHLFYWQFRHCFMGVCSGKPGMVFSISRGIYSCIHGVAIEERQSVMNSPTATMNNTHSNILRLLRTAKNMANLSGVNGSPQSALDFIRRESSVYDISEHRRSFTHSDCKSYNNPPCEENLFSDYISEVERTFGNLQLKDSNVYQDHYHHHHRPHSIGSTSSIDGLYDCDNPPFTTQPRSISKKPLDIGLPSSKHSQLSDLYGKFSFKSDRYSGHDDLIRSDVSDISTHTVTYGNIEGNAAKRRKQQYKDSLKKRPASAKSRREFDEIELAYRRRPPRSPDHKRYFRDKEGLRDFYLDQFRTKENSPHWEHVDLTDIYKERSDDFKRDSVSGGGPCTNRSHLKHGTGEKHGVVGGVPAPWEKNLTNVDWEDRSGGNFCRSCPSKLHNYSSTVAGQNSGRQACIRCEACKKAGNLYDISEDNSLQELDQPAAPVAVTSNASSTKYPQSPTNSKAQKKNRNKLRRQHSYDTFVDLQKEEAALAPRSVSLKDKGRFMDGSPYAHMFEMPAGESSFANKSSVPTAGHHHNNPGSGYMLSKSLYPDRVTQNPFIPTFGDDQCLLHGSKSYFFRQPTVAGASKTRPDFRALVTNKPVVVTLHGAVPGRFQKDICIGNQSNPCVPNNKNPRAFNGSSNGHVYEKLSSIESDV
compound,measurement,setting,value
CC(C)CN(CCc1ccc(Cl)c(Cl)c1)C[C@H](O)COc1ccc(NS(C)(=O)=O)cc1 [Compound 93-97],Injured paw - von Frey threshold,"[1]; 30 mg/kg i.p., 30 min",1.6 ± 0.3
same,Injured paw - von Frey threshold,"[1]; 30 mg/kg i.p., 60 min",1.1 ± 0.1
same,Injured paw - von Frey threshold,"[1]; 30 mg/kg i.p., 120 min",0.9 ± 0.1
same,Injured paw - von Frey threshold,"[1]; 30 mg/kg i.p., 240 min",1.0 ± 0.2
same,Injured paw - von Frey threshold,"[1]; 30 mg/kg i.p., Baseline",1.9 ± 0.2
same,Injured paw - von Frey threshold,"[1]; 100 mg/kg i.p., 30 min",1.1 ± 0.2
same,Injured paw - von Frey threshold,"[1]; 100 mg/kg i.p., 60 min",1.4 ± 0.3
same,Injured paw - von Frey threshold,"[1]; 100 mg/kg i.p., 120 min",1.0 ± 0.1
same,Injured paw - von Frey threshold,"[1]; 100 mg/kg i.p., 240 min",0.8 ± 0.2
same,Injured paw - von Frey threshold,"[1]; 100 mg/kg i.p., Baseline",1.2 ± 0.1
same,effect on von Frey thresholds measured in the normal paw,[1]; 30 and 100 mg/kg i.p.,no effect on normal paw
same,"analgesic effect / attenuation of mechanical allodynia, injured paw","[1]; 30 and 100 mg/kg i.p., any time point studied",no analgesic effect; also recorded: failed to attenuate mechanical allodynia
same,Side Effects: stretching/writhing (animals affected/group),[2]; 30 mg/kg i.p.,2/10 stretching/writhing (for first 5 min)
CS(=O)(=O)Nc1ccc(OC[C@H](O)CN(CCc2ccc(Cl)c(Cl)c2)Cc2ccccc2O)cc1 [Compound 93-40],effects on locomotor activity,[3]; 30 mg/kg IP,no significant effects
CNC1(c2ccccc2Cl)CCCCC1=O (stereo not shown) [ketamine],mean within the shaded area (criteria for improved drug performance) for NR1/NR2A,NR1/NR2A [4],fall within the shaded area
CS(=O)(=O)Nc1ccc(OC[C@@H](O)CN(CCO)CCc2ccc(Cl)c(Cl)c2)cc1 [Compound 93-8],effects on locomotor activity,[3]; 30-300 mg/kg IP,no significant effects
CCCCN(CCc1ccc(Cl)c(Cl)c1)C[C@H](O)COc1ccc(NS(C)(=O)=O)cc1 [Compound 93-31],"analgesic effect, injured paw","[1]; 30 mg/kg i.p., any time point studied",no analgesic effect
same,Injured paw - von Frey threshold,"[1]; 30 mg/kg i.p., 30 min",1.9 ± 0.3
same,Injured paw - von Frey threshold,"[1]; 30 mg/kg i.p., 60 min",1.7 ± 0.1
same,Injured paw - von Frey threshold,"[1]; 30 mg/kg i.p., 120 min",0.8 ± 0.2
same,Injured paw - von Frey threshold,"[1]; 30 mg/kg i.p., 240 min",1.1 ± 0.3
same,Injured paw - von Frey threshold,"[1]; 30 mg/kg i.p., Baseline",2.4 ± 0.4
same,"analgesia / attenuation of mechanical allodynia, injured paw",[1]; 100 mg/kg i.p.,observable analgesia at 30 and 60 min; also recorded: appeared to attenuate mechanical allodynia; also recorded: attenuated mechanical allodynia
same,duration of action,[1]; 100 mg/kg i.p.,60 min
same,onset,[1]; 100 mg/kg i.p.,30 min
same,peak threshold relative to the normal paw,[1]; 100 mg/kg i.p.,approximately half of that seen in the normal paw
same,Injured paw - von Frey threshold,"[1]; 100 mg/kg i.p., 30 min",9.3 ± 1.5
same,Injured paw - von Frey threshold,"[1]; 100 mg/kg i.p., 60 min",8.9 ± 1.7
same,Injured paw - von Frey threshold,"[1]; 100 mg/kg i.p., 120 min",1.9 ± 0.3
same,Injured paw - von Frey threshold,"[1]; 100 mg/kg i.p., 240 min",0.8 ± 0.2
same,Injured paw - von Frey threshold,"[1]; 100 mg/kg i.p., Baseline",1.7 ± 0.3
same,effect on von Frey thresholds measured in the normal paw,[1]; 30 and 100 mg/kg i.p.,no effect on the normal paw
same,ED50,"[1]; Rattus norvegicus, ip, assuming complete reversal may be achieved with higher doses",~100 mg/kg
same,Side Effects: stretching/writhing (animals affected/group),[2]; 30 mg/kg i.p.,0/10 stretching/writhing
same,effects on locomotor activity,[3]; 3-300 mg/kg IP,no significant effects
same,effect on locomotor activity index,"[3]; IP, doses up to 300 mg/kg, FIG. 5",no significant effect
"NCC1(CC(=O)O)CCCCC1 [Gabapentin, reference compound]",Injured paw - von Frey threshold,"[1]; 100 mg/kg i.p., 30 min",6.0 ± 1.1
same,Injured paw - von Frey threshold,"[1]; 100 mg/kg i.p., 60 min",11.1 ± 1.5
same,Injured paw - von Frey threshold,"[1]; 100 mg/kg i.p., 120 min",13.6 ± 0.9
same,Injured paw - von Frey threshold,"[1]; 100 mg/kg i.p., 240 min",6.6 ± 1.3
same,Injured paw - von Frey threshold,"[1]; 100 mg/kg i.p., Baseline",1.9 ± 0.2
same,Side Effects: stretching/writhing (animals affected/group),"[2]; 100 mg/kg i.p., for first 5 min",1/10 stretching/writhing (for first 5 min)
CC(C(O)c1ccc(O)cc1)N1CCC(Cc2ccccc2)CC1 (stereo not shown) [Ifenprodil],decrease in infarct volume,[5],22%
same,decrease infarct volume,[6],42%
same,pH dependence of potency,[7],more potent at lower pH (6.5) than higher pH (7.5)
OC(CN1CCC(Cc2ccc(F)cc2)CC1)c1ccc(Cl)cc1 (stereo not shown) [SL 82.0715],decrease in infarct volume,[8],36-48%
"C[C@@]12N[C@@H](Cc3ccccc31)c1ccccc12 [(−)MK801, reference compound]",mean within the shaded area (criteria for improved drug performance) for NR1/NR2A,NR1/NR2A [4],fall within the shaded area
same,fold less potent than (+)MK801 in causing the induction of locomotor activity,[3]; compared to vehicle injected control animals,at least 10 fold
CS(=O)(=O)Nc1ccc(OC[C@@H](O)CNCCc2ccc(Cl)c(Cl)c2)cc1 [Compound 93-4],inhibiting NMDA receptor mediated currents,NR1/NR2B,effective at inhibiting
same,inhibiting NMDA receptor mediated currents,NR1/NR2D,not NR1/NR2A or NR1/NR2D
same,reduction in the agonist induced response,AMPA receptors,No reduction
same,effects on locomotor activity,[3]; 3-300 mg/kg IP,no significant effects
same,inhibiting NMDA receptor mediated currents,NR1/NR2A [9],not NR1/NR2A
same,reduction in the agonist induced response,kainate receptors,No reduction
CS(=O)(=O)Nc1ccc(OCC(O)CN(CCc2ccc(Cl)c(Cl)c2)Cc2cccc(O)c2)cc1 (stereo not shown) [Compound 93-41],effects on locomotor activity,[3]; 30-300 mg/kg IP,no significant effects
(+)MK801 [reference compound],effects on locomotor activity (positive control),[3],stereotypical biphasic effects on locomotor activity
same,effects on locomotor activity (positive control),[3]; listed as (+)MK-801,induced locomotor activity at low doses and ataxia at higher doses
CCN(CCc1ccc(Cl)c(Cl)c1)C[C@H](O)COc1ccc(NS(C)(=O)=O)cc1 [Compound 93-5],effects on locomotor activity,[3]; 3-300 mg/kg IP,no significant effects
